Assay results published in patent publication US20180010132A1, “INHIBITION OF PRMT5 TO TREAT MTAP-DEFICIENCY-RELATED DISEASES” (NOVARTIS AG, priority 2014, published 2018).

How the values were obtained:
[1] = target: PRMT5/MEP50 complex (Homo sapiens, UniProt O14744); test: LC/MS based biochemical histone methyltransferase assay
Protocol: Top: Schematic representation of multi-allele dual-selection assay with P2A or STOP insertion cassettes and crystal violet staining of cells. […] Profiling of the inhibitory activity (IC50) of adenosine and MTA across a panel of histone methyltransferases (HMTs) in an LC/MS based biochemical assay. MTA and adenosine display single digit μM activity against the PRMT5/MEP50 complex (red) but have no activity (IC50>100 μM) across all other HMTs tested. […] MIAPaCa2 cells stably expressing inducible shPRMT5-2 were transduced with pRetro empty vector control or with MTAP cDNA and proliferation assessed by confluence measurements using Incucyte. […] FIGS. 3 K and L show in vitro proliferation assay of PK1 MTAP isogenic cell lines generated from a non-targeting control sgRNA FIG. 3 K, PK1 CTRL; or with a sgRNA targeting MTAP 1, PK1 MTAP KO and stably expressing Dox-inducible PRMT5 (shPRMT5-2) with and without treatment with doxycycline (+/−Dox) over time (hours) as assessed by incucyte (n=24 per treatment condition). […] FIGS. 3 M and N show focus formation of PK1 (FIG. 3M), wild type (WT) and (FIG. 3N), MTAP knockout (MTAP KO) cells treated with DMSO or MTA at concentrations as indicated.

[2] = target: PRMT5 (Homo sapiens, UniProt O14744); settings: methylating the substrate E2-F-1; cited from earlier work
Chain of PRMT5 (O14744 whole entry): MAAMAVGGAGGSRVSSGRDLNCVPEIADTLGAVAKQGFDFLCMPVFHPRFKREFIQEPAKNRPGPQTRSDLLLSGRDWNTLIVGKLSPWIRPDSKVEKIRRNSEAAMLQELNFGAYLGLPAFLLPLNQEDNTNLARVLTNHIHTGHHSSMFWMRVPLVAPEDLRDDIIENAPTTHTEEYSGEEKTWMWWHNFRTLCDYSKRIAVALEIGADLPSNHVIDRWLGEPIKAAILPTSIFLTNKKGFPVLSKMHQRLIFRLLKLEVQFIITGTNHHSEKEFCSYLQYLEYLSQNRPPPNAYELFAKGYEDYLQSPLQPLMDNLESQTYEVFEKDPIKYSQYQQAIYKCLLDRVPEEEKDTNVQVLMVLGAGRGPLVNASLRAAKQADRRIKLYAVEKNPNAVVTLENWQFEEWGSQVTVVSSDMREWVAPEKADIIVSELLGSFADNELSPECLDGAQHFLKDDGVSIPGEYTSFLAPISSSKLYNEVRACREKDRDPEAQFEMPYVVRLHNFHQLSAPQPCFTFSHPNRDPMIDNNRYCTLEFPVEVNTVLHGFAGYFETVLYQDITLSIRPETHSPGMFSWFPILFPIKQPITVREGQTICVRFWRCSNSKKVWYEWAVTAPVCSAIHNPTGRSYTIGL
Chain of PRMT5 (Q9BQA1 whole entry partner): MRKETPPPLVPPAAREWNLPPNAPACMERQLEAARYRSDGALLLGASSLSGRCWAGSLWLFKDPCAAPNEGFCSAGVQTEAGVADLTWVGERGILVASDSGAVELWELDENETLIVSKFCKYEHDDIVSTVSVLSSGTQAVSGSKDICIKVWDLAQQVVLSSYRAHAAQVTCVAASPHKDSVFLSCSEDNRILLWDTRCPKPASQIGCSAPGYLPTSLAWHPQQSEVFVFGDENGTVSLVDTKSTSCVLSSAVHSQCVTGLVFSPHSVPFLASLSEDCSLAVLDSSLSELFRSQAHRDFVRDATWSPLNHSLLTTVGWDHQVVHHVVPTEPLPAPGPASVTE

Chain of PRMT5/MEP50 complex (O14744 whole entry): as the sequence (O14744 whole entry) above
Chain of PRMT5/MEP50 complex (Q9BQA1 whole entry partner): as the sequence (Q9BQA1 whole entry partner) above

inhibitory activity (IC50) [1] | SMILES | PRMT5 activity [2]
single digit | Nc1ncnc2c1ncn2[C@@H]1O[C@H](CO)[C@@H](O)[C@H]1O [adenosine] | 
 | Nc1ncnc2c1ncn2[C@@H]1O[C@H](C[C@@H](N)CC[C@H](N)C(=O)O)C(O)C1O (stereo in doubt) [Sinefungin, 5′-Deoxy-5′-(1,4-diamino-4-carboxybutyl)adenosine] | inhibits
single digit | CSC[C@H]1O[C@@H](n2cnc3c(N)ncnc32)[C@H](O)[C@@H]1O [MTA, methyl-thioadenosine] | 
